Experimental data reported in PubChem BioAssay (NCI).
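A five-concentration, 48-hour dose response in 96-well plates underlies each endpoint, interpolated linearly between surrounding concentrations. The concentration for full growth arrest is given as TGI.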

Legend:
Assay in all cases: DTP human tumour cell line panel, 48 h
SK-MEL-5 melanoma = system: SK-MEL-5 melanoma
HOP-62 NSCLC = system: HOP-62 NSCLC
SF-295 CNS = system: SF-295 CNS
RXF 393 renal = system: RXF 393 renal
SN12C renal = system: SN12C renal
MOLT-4 leukemia = system: MOLT-4 leukemia
786-0 renal = system: 786-0 renal
TK-10 renal = system: TK-10 renal
SR leukemia = system: SR leukemia
U251 CNS = system: U251 CNS
A498 renal = system: A498 renal
UACC-62 melanoma = system: UACC-62 melanoma
NCI-H23 lung = system: NCI-H23 lung
KM12 colon = system: KM12 colon
NCI-H460 lung = system: NCI-H460 lung
HT29 colon = system: HT29 colon
OVCAR-8 ovarian = system: OVCAR-8 ovarian
SNB-75 CNS = system: SNB-75 CNS
HL-60(TB) leukemia = system: HL-60(TB) leukemia
K-562 leukemia = system: K-562 leukemia
OVCAR-3 ovarian = system: OVCAR-3 ovarian
T-47D breast = system: T-47D breast
NCI-H522 lung = system: NCI-H522 lung
SK-MEL-28 melanoma = system: SK-MEL-28 melanoma
CCRF-CEM leukemia = system: CCRF-CEM leukemia
RPMI-8226 leukemia = system: RPMI-8226 leukemia
A549 NSCLC = system: A549 NSCLC
BT-549 breast = system: BT-549 breast
MDA-MB-231 breast = system: MDA-MB-231 breast
SW-620 colon = system: SW-620 colon
CAKI-1 renal = system: CAKI-1 renal
IGROV1 ovarian = system: IGROV1 ovarian
M14 melanoma = system: M14 melanoma
OVCAR-4 ovarian = system: OVCAR-4 ovarian
HCC-2998 colon = system: HCC-2998 colon
MALME-3M melanoma = system: MALME-3M melanoma
OVCAR-5 ovarian = system: OVCAR-5 ovarian
MDA-N = system: MDA-N
UO-31 renal = system: UO-31 renal
LOX IMVI melanoma = system: LOX IMVI melanoma
COLO 205 colon = system: COLO 205 colon
SNB-19 CNS = system: SNB-19 CNS
MCF7 breast = system: MCF7 breast
HCT-15 colon = system: HCT-15 colon
DU-145 prostate = system: DU-145 prostate
PC-3 prostate = system: PC-3 prostate
NCI-H226 lung = system: NCI-H226 lung
ACHN renal = system: ACHN renal
NCI/ADR-RES ovarian = system: NCI/ADR-RES ovarian
HCT-116 colon = system: HCT-116 colon
HS 578T breast = system: HS 578T breast
UACC-257 melanoma = system: UACC-257 melanoma
MDA-MB-435 = system: MDA-MB-435
SF-268 CNS = system: SF-268 CNS
SK-OV-3 ovarian = system: SK-OV-3 ovarian
HOP-92 NSCLC = system: HOP-92 NSCLC
SF-539 CNS = system: SF-539 CNS
SK-MEL-2 melanoma = system: SK-MEL-2 melanoma
EKVX NSCLC = system: EKVX NSCLC

COc1ccc(OC)c(CCc2cc(OC)ccc2OC)c1 was tested, and the TGI (SK-MEL-5 melanoma) was > 9.35 µM, the TGI (HOP-62 NSCLC) was > 10 µM and the TGI (SF-295 CNS) was > 7.31 µM. The TGI (RXF 393 renal) was > 8.51 µM, the TGI (SN12C renal) was > 10 µM and the TGI (MOLT-4 leukemia) was > 10 µM. For the same compound, the TGI (786-0 renal) was > 10 µM, the TGI (TK-10 renal) was > 10 µM and the TGI (SR leukemia) was > 10 µM. For the same compound, the TGI (U251 CNS) was > 10 µM, the TGI (A498 renal) was > 10 µM and the TGI (UACC-62 melanoma) was > 10 µM. The TGI (NCI-H23 lung) was > 10 µM, the TGI (KM12 colon) was > 10 µM and the TGI (NCI-H460 lung) was > 10 µM. For the same compound, the TGI (HT29 colon) was > 10 µM, the TGI (OVCAR-8 ovarian) was > 10 µM and the TGI (SNB-75 CNS) was 9.07 µM. For the same compound, the TGI (HL-60(TB) leukemia) was 5.28 µM, the TGI (K-562 leukemia) was > 10 µM and the TGI (OVCAR-3 ovarian) was 2.09 µM. The TGI (T-47D breast) was > 10 µM, the TGI (NCI-H522 lung) was > 9.66 µM and the TGI (SK-MEL-28 melanoma) was > 10 µM. For the same compound, the TGI (CCRF-CEM leukemia) was > 10 µM, the TGI (RPMI-8226 leukemia) was > 10 µM and the TGI (A549 NSCLC) was > 10 µM. The TGI (BT-549 breast) was > 10 µM, the TGI (MDA-MB-231 breast) was > 10 µM and the TGI (SW-620 colon) was > 10 µM. The TGI (CAKI-1 renal) was > 10 µM, the TGI (IGROV1 ovarian) was > 10 µM and the TGI (M14 melanoma) was > 10 µM. For the same compound, the TGI (OVCAR-4 ovarian) was > 10 µM, the TGI (HCC-2998 colon) was > 10 µM and the TGI (MALME-3M melanoma) was > 6.95 µM. The TGI (OVCAR-5 ovarian) was > 10 µM, the TGI (MDA-N) was 1.64 µM and the TGI (UO-31 renal) was > 10 µM. For the same compound, the TGI (LOX IMVI melanoma) was > 10 µM, the TGI (COLO 205 colon) was 4.88 µM and the TGI (SNB-19 CNS) was > 10 µM. The TGI (MCF7 breast) was > 10 µM, the TGI (HCT-15 colon) was > 10 µM and the TGI (DU-145 prostate) was > 10 µM. For the same compound, the TGI (PC-3 prostate) was > 10 µM, the TGI (NCI-H226 lung) was > 10 µM and the TGI (ACHN renal) was > 10 µM. The TGI (NCI/ADR-RES ovarian) was > 6.02 µM, the TGI (HCT-116 colon) was > 10 µM and the TGI (HS 578T breast) was 7.29 µM. The TGI (UACC-257 melanoma) was > 10 µM, the TGI (MDA-MB-435) was 0.49 µM and the TGI (SF-268 CNS) was > 10 µM. The TGI (SK-OV-3 ovarian) was > 10 µM, the TGI (HOP-92 NSCLC) was > 10 µM and the TGI (SF-539 CNS) was 4.76 µM. The TGI (SK-MEL-2 melanoma) was > 8.88 µM and the TGI (EKVX NSCLC) was > 10 µM.

Work on Cc1ccc(-c2cc(-c3cc(-c4ccc(C)cc4C)n[nH]3)[nH]n2)c(C)c1 yielded a TGI (SK-MEL-5 melanoma) of 56.2 µM, a TGI (HOP-62 NSCLC) of 30.2 µM and a TGI (SF-295 CNS) of 26.5 µM. For the same compound, the TGI (RXF 393 renal) was 32.7 µM, the TGI (SN12C renal) was 30.7 µM and the TGI (MOLT-4 leukemia) was 36.8 µM. The TGI (786-0 renal) was 26.2 µM, the TGI (TK-10 renal) was 29.4 µM and the TGI (SR leukemia) was 26.5 µM. For the same compound, the TGI (U251 CNS) was 27.6 µM, the TGI (A498 renal) was 34.1 µM and the TGI (UACC-62 melanoma) was > 62 µM. It also gave a TGI (NCI-H23 lung) of 41.9 µM, a TGI (KM12 colon) of 49 µM and a TGI (NCI-H460 lung) of 21.4 µM. For the same compound, the TGI (HT29 colon) was 35.1 µM, the TGI (OVCAR-8 ovarian) was 43.1 µM and the TGI (SNB-75 CNS) was 34.8 µM. The TGI (HL-60(TB) leukemia) was 0.0792 µM, the TGI (K-562 leukemia) was 37.4 µM and the TGI (OVCAR-3 ovarian) was 26.9 µM. The TGI (T-47D breast) was > 74.4 µM, the TGI (NCI-H522 lung) was 30.3 µM and the TGI (SK-MEL-28 melanoma) was 32.4 µM. The TGI (CCRF-CEM leukemia) was 8.45 µM, the TGI (RPMI-8226 leukemia) was 10.5 µM and the TGI (A549 NSCLC) was > 52.4 µM. For the same compound, the TGI (BT-549 breast) was 42.7 µM, the TGI (MDA-MB-231 breast) was 32.8 µM and the TGI (SW-620 colon) was 33.1 µM. The TGI (CAKI-1 renal) was 36.2 µM, the TGI (IGROV1 ovarian) was 28.6 µM and the TGI (M14 melanoma) was 40.3 µM. It also gave a TGI (OVCAR-4 ovarian) of 29.1 µM, a TGI (HCC-2998 colon) of 28.9 µM and a TGI (MALME-3M melanoma) of 25 µM. For the same compound, the TGI (OVCAR-5 ovarian) was 59 µM, the TGI (MDA-N) was 34.1 µM and the TGI (UO-31 renal) was 45.7 µM. The TGI (LOX IMVI melanoma) was 38.4 µM, the TGI (COLO 205 colon) was > 62 µM and the TGI (SNB-19 CNS) was 41.2 µM. The TGI (MCF7 breast) was 38.8 µM, the TGI (HCT-15 colon) was 44.8 µM and the TGI (DU-145 prostate) was 33.1 µM. For the same compound, the TGI (PC-3 prostate) was 29.2 µM, the TGI (NCI-H226 lung) was 42.9 µM and the TGI (ACHN renal) was 24.4 µM. It also gave a TGI (NCI/ADR-RES ovarian) of 43 µM, a TGI (HCT-116 colon) of 33 µM and a TGI (HS 578T breast) of 44.6 µM. It also gave a TGI (UACC-257 melanoma) of 26.7 µM, a TGI (MDA-MB-435) of 31.1 µM and a TGI (SF-268 CNS) of 27.5 µM. For the same compound, the TGI (SK-OV-3 ovarian) was 29.4 µM, the TGI (HOP-92 NSCLC) was 39 µM and the TGI (SF-539 CNS) was 34 µM. For the same compound, the TGI (SK-MEL-2 melanoma) was 36.2 µM and the TGI (EKVX NSCLC) was 46 µM.
